pIC50: −log10 of the molar value.
How the values were obtained:
p38α = target: T1, p38α (Homo sapiens, UniProt Q16539); assay: p38 MAP Kinase assay: inhibition of ATF2 phosphorylation, ELISA; assay type: biochemical; details: ATF2 phosphorylation; read-out: [ENZ] P38 ALPHA, IC50, ELISA
T1 construct: p38 MAP Kinases are recombinant human full-length proteins with an amino-terminal GST fusion; GST (N); purchased Upstate Biotechnology Inc; host or cells: E. coli
Summary of the method: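 GST-tagged full-length human p38 MAP kinase with GST-ATF2 (aa 19–96; 1.25 μM) and 40 μM ATP in HEPES pH 7.5 buffer, without (Method I) or with (Method II) 1% human serum albumin. Compound pre-incubated 15 min at room temperature; reaction 30 min at 37 °C; ATF2 Thr69 phosphorylation measured by ELISA (A450).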

[1] = system: TNFα release from THP-1 cells; assay: Inhibition of TNFα release from LPS-stimulated THP-1 cells, ELISA; assay type: cell-based; details: Homo sapiens, THP-1, THP-1 cells, read-out: [CELL] THP-1, IC50, TNF ALPHA, ELISA
Summary of the method: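 Human THP-1 monocytes, 10^6 cells/ml in RPMI with 10% FBS, no serum or 1% HSA, preincubated 30 min at 37 °C with compound (≤0.5% DMSO), then stimulated with 10 μg/ml LPS for 18 h. Supernatant TNFα measured by ELISA; IC50 from non-linear dose-response regression.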

T1 sequence (Q16539 whole entry, the tested form may be a part): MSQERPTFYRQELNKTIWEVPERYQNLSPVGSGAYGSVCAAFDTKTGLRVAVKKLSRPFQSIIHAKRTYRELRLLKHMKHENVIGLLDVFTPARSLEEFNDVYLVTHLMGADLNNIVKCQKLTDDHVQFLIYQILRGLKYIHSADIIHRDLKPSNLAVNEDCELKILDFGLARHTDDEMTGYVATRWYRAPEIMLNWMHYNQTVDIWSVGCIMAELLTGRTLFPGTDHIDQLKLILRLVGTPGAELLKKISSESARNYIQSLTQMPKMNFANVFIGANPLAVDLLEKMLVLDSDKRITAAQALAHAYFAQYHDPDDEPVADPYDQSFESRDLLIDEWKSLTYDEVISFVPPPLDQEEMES

Row | Structure (SMILES) | pIC50 (p38α) | pIC50 [1] | melting point
1 | CC(C)(C)OC(=O)NC1CCN(c2nccc(Oc3ccc(NC(=O)c4cc(F)cc(N5CCOCC5)c4)c4ccccc34)n2)CC1 [Compound B366, t-Butyl-{1-[4-({4-[(3-fluoro-5-morpholin-4-ylbenzoyl)amino]-1-naphthyl}oxy)pyrimidin-2-yl]piperidin-4-yl}-carbamate] | 7.55 | 6.41 | 214 to 216 °C
2 | CS(=O)(=O)c1nccc(Oc2ccc(NC(=O)c3cc(F)cc(N4CCOCC4)c3)c3ccccc23)n1 [Compound B268, 3-Fluoro-N-(4-{[2-(methylsulfonyl)pyrimidin-4-yl]oxy}-1-naphthyl)-5-morpholin-4-ylbenzamide] | 6.28 | 5.86 | 173 to 175 °C
3 | CN(C(=N)N)c1nccc(Oc2ccc(NC(=O)c3cc(F)cc(N4CCOCC4)c3)c3ccccc23)n1 [Compound B367, N-[4-({2-[[amino(imino)methyl](methyl)amino]pyrimidin-4-yl}oxy)-1-naphthyl]-3-fluoro-5-morpholin-4-ylbenzamide] | 7.74 | 6.19 | 155 to 157 °C
4 | CC1CCN(c2nccc(Oc3ccc(NC(=O)c4cc(F)cc(N5CCOCC5)c4)c4ccccc34)n2)CC1 [Compound B335, 3-Fluoro-N-(4-{[2-(4-methylpiperidin-1-yl)pyrimidin-4-yl]oxy}-1-naphthyl)-5-morpholin-4-ylbenzamide] | 7.65 | < 6.00 | 117 to 118 °C
5 | COCCNc1nccc(Oc2ccc(NC(=O)c3cc(F)cc(N4CCOCC4)c3)c3ccccc23)n1 [Compound B319, 3-Fluoro-N-[4-({2-[(2-methoxyethyl)amino]pyrimidin-4-yl}oxy)-1-naphthyl]-5-morpholin-4-ylbenzamide] | 9.00 | 7.23 | 95 to 97 °C
6 | CC1CCCN1c1cc(F)cc(C(=O)Nc2ccc(OCCN3CCOCC3)c3ccccc23)c1 (stereo not drawn) [Compound B208, 3-Fluoro-5-(2-methylpyrrolidin-1-yl)-N-[4-(2-morpholin-4-ylethoxy)-1-naphthyl]benzamide] | 6.78 | 5.44 | 108 to 111 °C
7 | COc1cccc(C(=O)Nc2ccc(OCCN3CCOCC3)c3ccccc23)c1 [Compound B60, 3-Methoxy-N-[4-(2-morpholin-4-ylethoxy)-1-naphthyl]benzamide] | 5.11 | < 5.00 | 105 to 107 °C
8 | C[C@@H]1CN(c2nccc(Oc3ccc(NC(=O)c4cc(F)cc(N5CCOCC5)c4)c4ccccc34)n2)C[C@H](C)O1 [Compound B364, N-[4-({2-[(2R,6S)-2,6-Dimethylmorpholin-4-yl]pyrimidin-4-yl}oxy)-1-naphthyl]-3-fluoro-5-morpholin-4-ylbenzamide] | 7.56 | 6.38 | 118 to 120 °C
9 | CC1CCCN1c1nccc(Oc2ccc(NC(=O)c3cc(F)cc(N4CCCCC4)c3)c3ccccc23)n1 (stereo not drawn) [Compound B404, 3-Fluoro-N-(4-{[2-(2-methylpyrrolidin-1-yl)pyrimidin-4-yl]oxy}-1-naphthyl)-5-piperidin-1-ylbenzamide] | 6.82 | 5.95 | 93 to 94 °C
10 | CN1CCCC1CCNc1nccc(Oc2ccc(NC(=O)c3cc(F)cc(N4CCOCC4)c3)c3ccccc23)n1 (stereo not drawn) [Compound B344, 3-Fluoro-N-{4-[(2-{[2-(1-methylpyrrolidin-2-yl)ethyl]amino}pyrimidin-4-yl)oxy]-1-naphthyl}-5-morpholin-4-ylbenzamide] | 8.96 | 8.21 | 100 to 101 °C
11 | O=C(Nc1ccc(Oc2ccnc(NCC3OCCO3)n2)c2ccccc12)c1cc(F)cc(N2CCCCC2)c1 [Compound B411, N-[4-({2-[(1,3-Dioxolan-2-ylmethyl)amino]pyrimidin-4-yl}oxy)-1-naphthyl]-3-fluoro-5-piperidin-1-ylbenzamide] | 8.77 | 7.63 | 96 to 98 °C

From patent US7829560B2, “1,4-disubstituted naphthalenes as inhibitors of P38 MAP kinase” (Arqule, Inc., priority 2004, dated 2010)
